Values joined by “and” are separate entries in the source; they are usually repeats but may differ in a detail not shown here. Equal values may be shown once. “Also recorded” adds a separate entry of the source. Read-outs that look alike come from different tables or passages of the source.
Experiments:
P2X4 receptor [1] = target: T1, P2X4 receptor (Homo sapiens, UniProt Q99571); experiment: Surface plasmon resonance competitive binding assay; details: for Response Unit (RU): 5-BDBD alone, 1:1 combination, 5 or 1 μM; for experimental binding response unit (RU): validation BX430 vs 5-BDBD, single binders at 1 μM and 1:1 combination, Fig. 4B; for type of binding on P2X4 relative to 5-BDBD: experimental 1:1 combination RU compared with theoretical RU values
T1 construct: His tag (N); purchased MyBioSource, Inc (San Diego, CA, USA)
T1 sequence (Q99571 77-338): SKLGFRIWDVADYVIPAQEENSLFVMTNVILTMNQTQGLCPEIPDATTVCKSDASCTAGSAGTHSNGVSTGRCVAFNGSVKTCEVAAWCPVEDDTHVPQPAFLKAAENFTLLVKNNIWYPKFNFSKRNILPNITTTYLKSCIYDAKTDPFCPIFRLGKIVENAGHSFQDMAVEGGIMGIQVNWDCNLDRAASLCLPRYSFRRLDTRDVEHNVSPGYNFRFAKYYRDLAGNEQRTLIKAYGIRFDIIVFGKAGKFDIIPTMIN
Protocol: Recombinant human P2X4 (500 μg/mL stock solution in Dnase free water) was diluted to 40 μg/mL in sodium acetate 4.0. The protein was immobilized on a CM5 chip based on an amine coupling method as previously described with minor modification. Briefly, the immobilization method involved five phases. First, a stable baseline was established, and a response was observed. […] Both binding association and dissociation were identified as ethanolamine hydrochloride (1 M; pH 8.5) deactivated unreacted NHS-esters and removed electrostatically bound ligands with a contact time of 420 s and a flow rate of 10 μL/min. Completion of all five phases indicated successful immobilization of the P2X4 protein on the SPR sensor chip.
A competitive SPR binding assay was designed to narrow down the cannabinoids’ binding site on P2X4. […] Both compounds were dissolved in DMSO at 10 mM and diluted to 10 μM in PBS (20 mM). […] Subsequently, they were diluted to a working concentration of 10 μM using PBS (20 mM) as the diluent. For individual runs, each antagonist was further diluted with the running buffer, composed of PBS (20 mM) with 3 % DMSO, resulting in a final concentration of 1 μM. To evaluate the interaction of both antagonists simultaneously, a 1:1 combination ratio was employed. Glycine, at a pH of 2.5 was utilized as the regeneration buffer. Additionally, solvent correction cycles were incorporated, consisting of eight correction points ranging from 2.5 % to 3.8 % of DMSO content, ensuring accurate data interpretation during the experimental procedure.
Compounds were initially prepared at a concentration of 10 mM in DMSO and subsequently diluted in PBS (20 mM) to either 10 or 2 μM, depending on the binding response unit (RU) observed during the binding screening assays. For individual evaluations, compounds were diluted in a 1:1 combination ratio with the running buffer, PBS (20 mM) + 3 % DMSO, to either 5 or 1 μM.
These mixtures were subsequently diluted to either 5 or 1 μM using the running buffer.
The theoretical non-competitive value was calculated as the sum of the experimental RU values of the cannabinoid and BX430, or the cannabinoid and 5-BDBD. The combined experimental RU value was compared to both the competitive and non-competitive theoretical RU values to determine the type of binding.

human P2X4 = details: HEK293 cells expressing human P2X4; cited from earlier work
P2X4 receptor [2] = target: T1, P2X4 receptor; experiment: Surface plasmon resonance binding screening assay; details: for Kd / koff / kon: SPR Biacore T200, P2X4 immobilized on CM5 chip, 1:1 binding model, n.d. = not detectable; for Kd / koff / kon / binding affinity with P2X4 (in words): 0.4-300 μM; for koff: read-out: Koff (dissociation rate); for kon: read-out: Kon (association rate); for RU (Response Units) values compared with theoretical Rmax / binding affinity with P2X4 (in words): SPR screening; for RU (Response Units) values compared with theoretical Rmax: attributed to matrix binding effects; for association/dissociation phase with P2X4 (sensorgram, in words): SPR screening sensorgrams, Fig. 3
P2X4 = test system: P2X4; parameters: method as in PMID 28588493; details: selective non-competitive (allosteric) antagonist of P2X4; cited from earlier work
[3] = KD (equilibrium dissociation constant)
[4] = read-out: KD (equilibrium dissociation constant)

Structure (SMILES) | Kd (P2X4 receptor [2]; [3]) | koff (P2X4 receptor [2]) | kon (P2X4 receptor [2]) | binding affinity with P2X4 (in words) (P2X4 receptor [2]) | further results
O=C1CN=C(c2cccc(Br)c2)c2oc3ccccc3c2N1 [5-BDBD, reference compound] |  |  |  |  | Response Unit (RU) (P2X4 receptor [1]; Fig. 6A: CBD alone): 5.8 RU; Response Unit (RU) (P2X4 receptor [1]; Fig. 6E: CBV alone): 6.4 RU; experimental binding response unit (RU) (P2X4 receptor [1]): 34.9 RU; IC50 (human P2X4): […]
C=C(C)[C@@H]1C[C@H](O)C(C)=C[C@H]1c1c(O)cc(CCCCC)cc1O [6α–OH–CBD, 6α-hydroxy cannabidiol] | 340 µM and > 10 µM | 0.427 s⁻¹ | 1270 M⁻¹ s⁻¹ |  | Kd (P2X4 receptor [2]; [4]): 337 µM; RU (Response Units) values compared with theoretical Rmax (P2X4 receptor [2]): higher than the theoretical Rmax
CCCCCc1cc(O)c2c(c1)OC(C)(C)C1CCC(CO)=CC21 (stereo not drawn) [11-OH-THC] | 6.31 µM | 0.0742 s⁻¹ | 11800 M⁻¹ s⁻¹ |  | 
CC(C)c1cc(Br)c(NC(=O)Nc2cccnc2)c(Br)c1 [BX430, reference compound] |  |  |  |  | experimental binding response unit (RU) (P2X4 receptor [1]): 22.5 RU; IC50 (P2X4): 0.54 µM
CCCCCc1cc(O)c2c(c1)OC(C)(CCC=C(C)C)C=C2 (stereo not drawn) [CBC, cannabichromene] |  |  |  | did not demonstrate any binding affinity | 
CCCc1cc(O)c2c(c1)OC(C)(CCC=C(C)C)C=C2 (stereo not drawn) [CBCV, cannabichromevarin] |  |  |  | did not demonstrate any binding affinity | 
C=C(C)[C@@H]1CCC(C)=C[C@H]1c1c(O)cc(CCCCC)cc1O [CBD, cannabidiol] | 1 µM | 0.02 s⁻¹ | 19200 M⁻¹ s⁻¹ |  | Response Unit (RU) (P2X4 receptor [1]; Fig. 6A: CBD alone): 6.9 RU; type of binding on P2X4 relative to 5-BDBD (P2X4 receptor [1]): competitive P2X4-binders; also recorded: competitive binding; Kd (P2X4 receptor [2]; [4]): 1.04 µM; association/dissociation phase with P2X4 (sensorgram, in words) (P2X4 receptor [2]): slow dissociation phase
C=C(C)[C@@H]1CCC(C)=C[C@H]1c1c(O)cc(CCCCC)c(C(=O)O)c1O [CBDA, cannabidiolic acid] |  |  |  | did not demonstrate any binding affinity | 
C=C(C)[C@@H]1CCC(C)=C[C@H]1c1c(O)cc(CCCCC)c(C(=O)OC)c1O [CBDAME, cannabidiolic acid methyl ester] |  |  |  | did not demonstrate any binding affinity | 
C=C(C)C1CCC(C)=CC1c1c(O)cc(CCCC)cc1O (stereo not drawn) [CBDB, cannabidibutol] |  |  |  | did not demonstrate any binding affinity | 
C=C(C)C1CCC(C)=CC1c1c(O)cc(CCCCCCC)cc1O (stereo not drawn) [CBDP, cannabidiphorol] |  |  |  | did not demonstrate any binding affinity | 
C=C(C)[C@@H]1CCC(C)=C[C@H]1c1c(O)cc(CCC)cc1O [CBDV, cannabidivarin] | 9.9 µM | 0.12 s⁻¹ | 12100 M⁻¹ s⁻¹ |  | Kd (P2X4 receptor [2]; [4]): 9.91 µM
CCCCCc1cc(O)c(C/C=C(\C)CCC=C(C)C)c(O)c1 [CBG, cannabigerol] |  |  |  | did not demonstrate any binding affinity | 
CCCCCc1cc(O)c(C/C=C(\C)CCC=C(C)C)c(O)c1C(=O)O [CBGA, cannabigerolic acid] | 140 µM and > 10 µM | 0.119 s⁻¹ | 824 M⁻¹ s⁻¹ |  | Kd (P2X4 receptor [2]; [4]): 144 µM; association/dissociation phase with P2X4 (sensorgram, in words) (P2X4 receptor [2]): slow association and dissociation phases
CCCCCc1cc(O)c(C/C=C(\C)CCC=C(C)C)c(OC)c1 [CBGM, cannabigerol monomethyl ether] |  |  |  | did not demonstrate any binding affinity | 
CC(C)=CCC/C(C)=C/Cc1c(O)cc(C)c(C(=O)O)c1O [CBGOA, cannabigerorcinic acid] | 140 µM and > 10 µM | 0.375 s⁻¹ | 2720 M⁻¹ s⁻¹ |  | Kd (P2X4 receptor [2]; [4]): 138 µM; RU (Response Units) values compared with theoretical Rmax (P2X4 receptor [2]): higher than the theoretical Rmax
CCCc1cc(O)c(C/C=C(\C)CCC=C(C)C)c(O)c1 [CBGV, cannabigerovarin] |  |  |  |  | association/dissociation phase with P2X4 (sensorgram, in words) (P2X4 receptor [2]): slow dissociation phase
CCCc1cc(O)c(C/C=C(\C)CCC=C(C)C)c(O)c1C(=O)O [CBGVA, cannabigerovarinic acid] |  | 0.174 s⁻¹ | 1890 M⁻¹ s⁻¹ |  | Kd (P2X4 receptor [2]; [4]): 92 µM; association/dissociation phase with P2X4 (sensorgram, in words) (P2X4 receptor [2]): slow association and dissociation phases; RU (Response Units) values compared with theoretical Rmax (P2X4 receptor [2]): higher than the theoretical Rmax
CCCCCc1cc(O)c2c(c1)OC1(C)CCC3C1C2C3(C)C (stereo not drawn) [CBL, cannabicyclol] |  |  |  | did not demonstrate any binding affinity | 
CCCCCc1cc(O)c2c(c1)OC(C)(C)c1ccc(C)cc1-2 [CBN, cannabinol] |  |  |  | did not demonstrate any binding affinity | 
C=C(C)c1ccc(C)cc1-c1c(O)cc(CCCCC)cc1O [CBND, cannabinodiol] | 84 µM | 0.128 s⁻¹ | 1520 M⁻¹ s⁻¹ |  | Kd (P2X4 receptor [2]; [4]): 84.2 µM; RU (Response Units) values compared with theoretical Rmax (P2X4 receptor [2]): higher than the theoretical Rmax
CCCc1cc(O)c2c(c1)OC(C)(C)c1ccc(C)cc1-2 [CBV, cannabivarin] | 16.4 µM | 0.0405 s⁻¹ | 2470 M⁻¹ s⁻¹ |  | Response Unit (RU) (P2X4 receptor [1]; Fig. 6E: CBV alone): 0.9 RU; type of binding on P2X4 relative to 5-BDBD (P2X4 receptor [1]): competitive P2X4-binders; also recorded: competitive binding; association/dissociation phase with P2X4 (sensorgram, in words) (P2X4 receptor [2]): slow dissociation phase
CCCCCc1cc2c(c(O)c1C(=O)O)[C@@H]1C=C(C)CC[C@H]1C(C)(C)O2 [THCA-A, Δ^9-tetrahydrocannabinolic acid A] | 117 µM | 0.101 s⁻¹ | 866 M⁻¹ s⁻¹ |  | association/dissociation phase with P2X4 (sensorgram, in words) (P2X4 receptor [2]): slow association and dissociation phases; RU (Response Units) values compared with theoretical Rmax (P2X4 receptor [2]): higher than the theoretical Rmax
CCCCc1cc(O)c2c(c1)OC(C)(C)C1CCC(C)=CC21 (stereo not drawn) [THCB, Δ^9-tetrahydrocannabibutol] |  |  |  | did not demonstrate any binding affinity | 
CCCCCCCc1cc(O)c2c(c1)OC(C)(C)C1CCC(C)=CC21 (stereo not drawn) [THCP, Δ^9-tetrahydrocannabiphorol] |  |  |  | did not demonstrate any binding affinity | 
CCCc1cc(O)cc(O)c1C(=O)O [Varinolic acid, varinolic acid] |  |  |  | did not demonstrate any binding affinity | 
CCCCCc1cc2c(c(O)c1C(=O)O)[C@@H]1CC(C)=CC[C@H]1C(C)(C)O2 [Δ^8-THCA-A, Δ^8-trans-tetrahydrocannabinolic acid A] | 76 µM and 76.4 µM | 0.0812 s⁻¹ | 1060 M⁻¹ s⁻¹ |  | association/dissociation phase with P2X4 (sensorgram, in words) (P2X4 receptor [2]): slow association and dissociation phases; RU (Response Units) values compared with theoretical Rmax (P2X4 receptor [2]): higher than the theoretical Rmax
